Laboratory results taken from patent US10946007B2, “4-[2-(2-fluorophenoxymethyl)phenyl]piperidine compounds” (THERAVANCE BIOPHARMA R&D IP, LLC, priority 2008, dated 2021).

What was measured:
[1] = target: T1, hNET (Homo sapiens, UniProt P23975); test: hNET membrane radioligand binding assay (Assay 1, 3H-nisoxetine); details: Assay 1, membranes of HEK-293 cells expressing hNET; read-out: NET pKi (converted)
T1 construct: expressed in transfected cells; host or cells: HEK-293
Method: (§1) Membrane radioligand binding assays were used to measure competitive inhibition of labeled ligand (^3H-citalopram or ^3H-nisoxetine or ^3H-WIN35428) binding to membranes prepared from cells expressing the respective human recombinant transporter (hSERT or hNET or hDAT) in order to determine the pKi values of test compounds at the transporters.
(§2) Recombinant human embryonic kidney (HEK-293) derived cell lines stably transfected with hSERT or hNET, respectively, were grown in DMEM medium supplemented with 10% dialyzed FBS (for hSERT) or FBS (for hNET), 100 μg/ml penicillin, 100 μg/ml streptomycin, 2 mM L-glutamine and 250 μg/ml of the aminoglycoside antibiotic G418, in a 5% CO2 humidified incubator at 37° C. When cultures reached 80% confluence, the cells were washed thoroughly in PBS (without Ca^2+ and Mg^2+) and lifted with 5 mM EDTA in PBS. Cells were pelleted by centrifugation, resuspended in lysis buffer (10 mM Tris-HCl, pH7.5 containing 1 mM EDTA), homogenized, pelleted by centrifugation, then resuspended in 50 mM Tris-HCl, pH 7.5 and 10% sucrose at 4° C. Protein concentration of the membrane suspension was determined using a Bio-Rad Bradford Protein Assay kit. Membranes were snap frozen and stored at −80° C. Chinese hamster ovary membranes expressing hDAT (CHO-DAT) were purchased from PerkinElmer and stored at −80° C.
(§3) Binding assays were performed in a 96-well assay plate in a total volume of 200 μl assay buffer (50 mM Tris-HCl, 120 mM NaCl, 5 mM KCl, pH 7.4) with 0.5, 1, and 3 μg membrane protein, for SERT, NET and DAT, respectively.
(§4) Stock solutions (10 mM in DMSO) of test compound were prepared and serial dilutions made using Dilution Buffer (50 mM Tris-HCl, 120 mM NaCl, 5 mM KCl, pH 7.4, 0.1% BSA, 400 μM ascorbic acid).
(§5) Following a 60 minute incubation at 22° C. (or a period sufficient to reach equilibrium), the membranes were harvested by rapid filtration over a 96-well UniFilter GF/B plate, pretreated with 0.3% polyethyleneimine, and washed 6 times with 300 μl wash buffer (50 mM Tris-HCl, 0.9% NaCl, pH 7.5 at 4° C.). Plates were dried overnight at room temperature, 45 μl of MicroScint™-20 (Perkin Elmer) added and bound radioactivity quantitated via liquid scintillation spectroscopy. Competitive inhibition curves and saturation isotherms were analyzed using GraphPad Prism Software package (GraphPad Software, Inc., San Diego, Calif.). IC50 values were generated from concentration response curves using the Sigmoidal Dose Response (variable slope) algorithm in Prism GraphPad.

[2] = target: T2, hSERT (Homo sapiens, UniProt P31645); test: hSERT membrane radioligand binding assay (Assay 1, 3H-citalopram); details: Assay 1, membranes of HEK-293 cells expressing hSERT; read-out: SERT pKi (converted)
T2 construct: expressed in transfected cells; host or cells: HEK-293
T2 sequence (P31645 whole entry): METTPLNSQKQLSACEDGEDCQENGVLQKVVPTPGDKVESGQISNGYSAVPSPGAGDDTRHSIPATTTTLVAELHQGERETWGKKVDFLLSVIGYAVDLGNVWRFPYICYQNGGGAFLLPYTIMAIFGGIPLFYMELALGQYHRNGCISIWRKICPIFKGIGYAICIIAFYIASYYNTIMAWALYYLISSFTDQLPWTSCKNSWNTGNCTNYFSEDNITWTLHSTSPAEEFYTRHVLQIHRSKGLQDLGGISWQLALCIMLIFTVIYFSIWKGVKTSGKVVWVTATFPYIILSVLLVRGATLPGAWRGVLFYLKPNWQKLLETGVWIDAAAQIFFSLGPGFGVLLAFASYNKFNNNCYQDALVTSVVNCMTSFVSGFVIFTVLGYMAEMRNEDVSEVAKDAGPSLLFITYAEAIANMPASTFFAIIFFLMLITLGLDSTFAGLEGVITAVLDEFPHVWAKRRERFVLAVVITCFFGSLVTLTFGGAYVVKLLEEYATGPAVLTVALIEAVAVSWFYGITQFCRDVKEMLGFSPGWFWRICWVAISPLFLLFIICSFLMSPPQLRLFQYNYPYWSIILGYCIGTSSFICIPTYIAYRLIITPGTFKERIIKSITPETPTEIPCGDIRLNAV
Method: as §1, §2, §3, §4, §5

T1 sequence (P23975 whole entry): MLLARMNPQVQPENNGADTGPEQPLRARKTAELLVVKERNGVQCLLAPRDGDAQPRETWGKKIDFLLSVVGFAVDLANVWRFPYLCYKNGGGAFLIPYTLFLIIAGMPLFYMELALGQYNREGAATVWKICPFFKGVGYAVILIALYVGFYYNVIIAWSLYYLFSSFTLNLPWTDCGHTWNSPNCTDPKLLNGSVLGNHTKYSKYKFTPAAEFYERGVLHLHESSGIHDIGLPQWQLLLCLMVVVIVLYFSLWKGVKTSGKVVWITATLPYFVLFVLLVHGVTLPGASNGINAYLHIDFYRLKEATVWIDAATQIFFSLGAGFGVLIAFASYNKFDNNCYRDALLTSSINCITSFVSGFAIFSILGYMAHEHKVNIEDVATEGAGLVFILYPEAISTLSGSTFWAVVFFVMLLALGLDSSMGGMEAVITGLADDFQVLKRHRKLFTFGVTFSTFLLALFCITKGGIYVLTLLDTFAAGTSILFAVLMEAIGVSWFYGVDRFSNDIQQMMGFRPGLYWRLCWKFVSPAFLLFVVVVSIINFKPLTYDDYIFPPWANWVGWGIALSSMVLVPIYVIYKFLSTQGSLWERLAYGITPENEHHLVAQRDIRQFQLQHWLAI

Row | Ki [1] | Ki [2] | SMILES
1 | 39.8 nM | 31.6 nM | c1ccc(OCc2ccccc2C2CCNCC2)cc1 [unsubstituted]
2 | 5.01 nM | 12.6 nM | Fc1ccccc1OCc1ccccc1C1CCNCC1 [Compound 3-1]
3 | 31.6 nM | 1.58 nM | Cc1ccccc1OCc1ccccc1C1CCNCC1 [Compound 2-methyl]
4 | 31.6 nM | 3.98 nM | Clc1ccccc1OCc1ccccc1C1CCNCC1 [Compound 2-chloro]
